According to BindingDB's records for doi:10.1021/jm030795v (Wroclaw University of Technology, 2003):
Where a name gives a salt, the structure may show the parent alone.

These compounds were tested against Cytosol aminopeptidase (Sus scrofa) (assay: Binding affinity for cytosolic leucine aminopeptidase (LAP) from porcine kidney).

Ki [µM]	SMILES
0.06	CC(C)CC(N)C=O (stereo not drawn) [2-Amino-4-methyl-pentanal]
58	CC(C)CC(OP(=O)(O)C(N)CC(C)C)C(=O)O (stereo not drawn) [2-[(1-Amino-3-methyl-butyl)-hydroxy-phosphinoyloxy]-4-methyl-pentanoic acid]

SMILES	Ki [µM]
CC(C)CC(O)P(=O)(O)NCC(=O)O (stereo not drawn) [{[hydroxy(1-hydroxy-3-methylbutyl)phosphoryl]amino}acetic acid; dilithium salt]	4.88
